Molecules are shown by their SMILES.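 All cell lines were grown in 96-well plates and treated with compound for 48 hours. Definition used: TGI = concentration required for complete inhibition of growth.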

Among the test systems are SR leukemia; NCI-H23 lung; A549 NSCLC; CCRF-CEM leukemia; OVCAR-3 ovarian; ACHN renal; LOX IMVI melanoma; OVCAR-5 ovarian; SN12C renal; MDA-N; KM12 colon; PC-3 prostate.
What all share (assay): NCI anticancer screen, dose series, 48 h

Consider `O=C1c2cccc3c2C(=O)c2c(cccc21)OCCOCCOCCOCCO3`, for which the TGI with SR leukemia is 58.9 µM; in the experiment with NCI-H23 lung, over 100 µM; in the experiment with A549 NSCLC, over 100 µM; in the experiment on CCRF-CEM leukemia, over 100 µM; with OVCAR-3 ovarian, over 100 µM; in the experiment with ACHN renal, over 100 µM. The TGI with LOX IMVI melanoma, in the experiment with OVCAR-5 ovarian and with SN12C renal was over 100 µM each time.
For `C=CCCON(C(=O)OC(C)(C)C)C(C)(C)C`, the TGI in the experiment with NCI-H23 lung, in the experiment on A549 NSCLC, with CCRF-CEM leukemia, with OVCAR-3 ovarian, in the experiment on ACHN renal and with MDA-N was over 100 µM each time. For the same compound, the TGI in the experiment on KM12 colon, with LOX IMVI melanoma, with OVCAR-5 ovarian, in the experiment on SN12C renal and in the experiment with PC-3 prostate was over 100 µM in each case.
Turning to `CC(C)Cc1ccc(C(C)C(=O)N2CCN(/C=C/c3ccccc3)CC2)cc1` (stereo not given), the TGI is 27.1 µM with NCI-H23 lung; 29.7 µM with A549 NSCLC; 37.1 µM in the experiment with CCRF-CEM leukemia; 25.9 µM in the experiment on OVCAR-3 ovarian; 31.7 µM in the experiment on KM12 colon; 33.1 µM in the experiment on LOX IMVI melanoma. Also, the TGI with OVCAR-5 ovarian was determined as 26.9 µM; in the experiment on SN12C renal, 30.8 µM.
Regarding `CC1(C)OC(C(=O)Nc2cc3c4ccccc4ccc3c3ccccc23)C(C(=O)N2CCCCC2)O1` (stereo not given), the TGI in the experiment on NCI-H23 lung, with A549 NSCLC, in the experiment on CCRF-CEM leukemia, with OVCAR-3 ovarian, in the experiment on ACHN renal and in the experiment with MDA-N was over 100 µM in each case. Besides, the TGI with KM12 colon was over 100 µM; in the experiment on LOX IMVI melanoma, 25.3 µM; in the experiment on OVCAR-5 ovarian it was over 100 µM; in the experiment on SN12C renal it was over 100 µM; in the experiment with PC-3 prostate, over 100 µM.
With `COc1ccc(/C=C2\CCNC2=O)cc1`, the TGI in the experiment with NCI-H23 lung, in the experiment with A549 NSCLC, in the experiment with CCRF-CEM leukemia, with OVCAR-3 ovarian, in the experiment with KM12 colon and in the experiment on LOX IMVI melanoma was over 100 µM in each case. The TGI in the experiment with OVCAR-5 ovarian and in the experiment on SN12C renal was over 100 µM each time.
On to `CO[C@@]12C[C@@H](C)C3=CCC(C)=C3CC1=C(C)C(=O)O2`, for which the TGI in the experiment with SR leukemia, in the experiment on NCI-H23 lung, with CCRF-CEM leukemia, with OVCAR-3 ovarian, with ACHN renal and with KM12 colon was over 100 µM each time. The TGI in the experiment with LOX IMVI melanoma, in the experiment on OVCAR-5 ovarian and in the experiment with PC-3 prostate was over 100 µM in each case.
With `CCCC(=O)OCC1OC(n2ccc(N)nc2=O)C(OC(=O)CCC)C1OC(=O)CCC` (stereo not given), the TGI with NCI-H23 lung, with A549 NSCLC, in the experiment on CCRF-CEM leukemia, with OVCAR-3 ovarian, in the experiment with KM12 colon and in the experiment on LOX IMVI melanoma was over 100 µM in each case. Also, the TGI in the experiment on OVCAR-5 ovarian and in the experiment with SN12C renal was over 100 µM throughout.
For `CC1(C)[C@@H](Cn2ccc(=O)[nH]c2=O)CC[C@@]1(C)CO`, the TGI in the experiment on A549 NSCLC, in the experiment with CCRF-CEM leukemia, with OVCAR-3 ovarian, in the experiment on ACHN renal, with MDA-N and in the experiment with KM12 colon was over 100 µM each time. The TGI in the experiment with LOX IMVI melanoma, in the experiment on OVCAR-5 ovarian, in the experiment on SN12C renal and in the experiment on PC-3 prostate was over 100 µM each time.
Consider `C=CCc1c(O)c2c(c3oc(=O)cc(C)c13)CC(C)O2` (stereo not given), for which the TGI in the experiment with SR leukemia, with NCI-H23 lung, with A549 NSCLC, with CCRF-CEM leukemia, with OVCAR-3 ovarian and in the experiment with ACHN renal was over 100 µM throughout. The TGI in the experiment with LOX IMVI melanoma, in the experiment on OVCAR-5 ovarian and in the experiment with SN12C renal was over 100 µM in each case.
Consider `COc1cccc(CCNC(=O)Cc2ccccc2CCO)c1`, for which the TGI with SR leukemia, in the experiment with NCI-H23 lung, in the experiment with A549 NSCLC, in the experiment on CCRF-CEM leukemia, in the experiment on OVCAR-3 ovarian and in the experiment on ACHN renal was over 100 µM throughout. The TGI with KM12 colon, in the experiment with OVCAR-5 ovarian, with SN12C renal and with PC-3 prostate was over 100 µM each time.
As to `CCO/C(O)=C(/C(=N)N1CCOCC1)C(=O)Nc1ccc(F)cc1`, the TGI in the experiment with NCI-H23 lung, with A549 NSCLC, with CCRF-CEM leukemia, in the experiment with OVCAR-3 ovarian, in the experiment on ACHN renal and with MDA-N was over 100 µM in each case. The TGI with KM12 colon, in the experiment with LOX IMVI melanoma, in the experiment with OVCAR-5 ovarian, in the experiment on SN12C renal and in the experiment with PC-3 prostate was over 100 µM throughout.
With `O=c1oc2ccccc2cc1-c1cc2ccccn2c1`, the TGI in the experiment with NCI-H23 lung, in the experiment on A549 NSCLC, with CCRF-CEM leukemia, in the experiment with OVCAR-3 ovarian, in the experiment on ACHN renal and in the experiment with MDA-N was over 100 µM each time. Moreover, the TGI in the experiment with KM12 colon, in the experiment with LOX IMVI melanoma, with OVCAR-5 ovarian and in the experiment on PC-3 prostate was over 100 µM each time.
Take `CCOC(=O)NC(Nc1ccc(C)cc1)(C(F)(F)F)C(F)(F)F`: the TGI in the experiment with NCI-H23 lung, with A549 NSCLC, in the experiment on CCRF-CEM leukemia, in the experiment on OVCAR-3 ovarian, with ACHN renal and with MDA-N was over 100 µM throughout. The TGI in the experiment on KM12 colon, in the experiment with LOX IMVI melanoma, in the experiment on OVCAR-5 ovarian, in the experiment on SN12C renal and with PC-3 prostate was over 100 µM throughout.

Source of the values: PubChem BioAssay (NCI).
